{
  "source": "patent US12441988B2",
  "about": "“Engineered adult-like human heart tissue” (THE TRUSTEES OF COLUMBIA UNIVERSITY IN THE CITY OF NEW YORK, priority 2015, dated 2025)",
  "type_in_all_cases": "cell-based, human",
  "key": {"TS organoids [1]": {"system": "TS organoids", "experiment": "Timothy Syndrome disease model, calcium transients and EADs", "protocol": "Timothy Syndrome hiPSCs were generated and differentiated into CMs as previously described. Briefly, fibroblasts were isolated from patients with Timothy Syndrome (TS line) and a control healthy fibroblast line (#3, IMR90 cell line) and transduced by lipofection using established episomal vectors. […] 2 μM IWP-3 (Wnt inhibitor, #SML0533, Lot #102m4613V, Sigma-Aldrich) was added for days 5-11, in DF20 for days 5-7 and DF5 for day 7 onwards.\n(§1) Tissues (organoids and FCTs) within culture platforms were loaded with Fluo-4 NW (50% v/v, Life Technologies) in RPMI+B27 media containing 5 μM blebbistatin (Sigma) to reduce movement artifacts, for 30 minutes at 37° C. Videos were acquired at a rate of 150 frames per second using a Pike F-032 camera (Allied Vision Technologies) controlled by the custom designed, free-source SPLASSH software. Videos were analyzed in MATLAB using a custom script that calculated the temporal changes in calcium fluorescence intensity. Specifically, each frame was normalized to a baseline background region to give baseline-corrected changes in minimum and maximum fluorescence values for each frame. This temporal change in fluorescence intensity was presented as a calcium transient trace from which measurements were obtained.\n(§2) Calcium transients were analyzed to measure the irregularity of various parameters as previously described. Briefly, the calcium transient “timing” was determined as the peak-to peak value of two successive beats as defined by the peak maxima. Calcium transient “amplitude” was determined by numerically integrating the area below the peak maxima relative to the baseline. […] The average rhythmicity was defined as the ratio of the parameter standard deviation to the parameter mean of the corresponding (control, constant, intensity) tissue group. Beats with parameter measurements falling outside two standard deviations from the average rhythmicity were classified as irregular."}, "hiPS-CM organoids [2]": {"system": "hiPS-CM organoids", "experiment": "Calcium handling (Fluo-4 calcium transients) in organoids and FCTs", "conditions": "for calcium transients after drug: organoids and FCTs, verapamil or 0.002 mM thapsigargin", "protocol": "Calcium transients were analyzed using the Fluo-4 NW dye in RPMI+B27 media containing 5 μM blebbistatin to reduce movement artifacts, for 30 minutes at 37° C. Videos were acquired at a rate of 150 frames per second using a Pike F-032 camera controlled by the custom-designed, free-source SPLASSH software. Videos were analyzed in MATLAB using a custom script that calculated the temporal changes in calcium fluorescence intensity. Each frame was normalized to a baseline background region to give baseline corrected changes in minimum and maximum fluorescence values for each frame. This temporal change in fluorescence intensity was presented as a calcium transient trace. The calcium transient timing was determined as the peak-to-peak value of two successive beats as defined by the peak maxima. Calcium transient amplitude was determined by numerically integrating the area below the peak maxima relative to the baseline. […] The average rhythmicity was defined as the ratio of the parameter standard deviation to the parameter mean of the corresponding (control, constant, intensity) tissue group. Beats with parameter measurements falling outside two standard deviations from the average rhythmicity were classified as irregular.\nas §1, §2"}, "hiPS-CM organoids [3]": {"system": "hiPS-CM organoids", "experiment": "Dose response curves of drugs in engineered cardiac tissue (beat frequency, force, EC50)", "conditions": "for beat frequency (BPM): engineered cardiac micro-tissue, increasing drug concentrations", "protocol": "Tissue contractility was measured by tracking the change in the projected tissue area as a function of time. Live cell, bright field videos were acquired at rates of 150 frames per second using a Pike F-032b (Allied Vision Technologies) camera controlled with the custom […] software. Acquired video frames were inverted and an automated intensity threshold was used to identify cell location in the video frame. First, a baseline time point in the video corresponding to a relaxed tissue state was selected. Absolute differences in cell area from the baseline frame were then calculated to create a time course of cell area dynamics as a function of time. The resulting time courses were analyzed with a native MATLAB automated peak finding algorithm to determine locations of maximum cell contraction indicated by the locations of local maxima in the time courses. Beat period lengths were determined from the length of time between pairs of local maxima. Beat frequencies were determined by inverting beat periods. Contraction amplitude relaxation times were measured from the length of time required for the time course to relax in amplitude from the peak contraction amplitude of the local maxima to the calculated relaxation amplitude (e.g. the […] time was the length of time elapsed from the local maxima until the contraction time course reached 10% of the local maximum contraction difference amplitude). Drugs were diluted in standard media (RPMI+B27). […] Tissue videos were captured≥5 minutes after each dose was administered, and processed using custom image processing software as discussed above. For chronotropic drugs, bright field videos were taken at each drug concentration so that measurements of the beat frequency could be determined as a function of drug concentration. For ionotropic drugs, tissues were placed in the organ bath and force measurements were recorded as previously described at each drug concentration so that the measurements of the change in force generated could be determined as a function of drug concentration. Dose-response curves for these parameters could be constructed by using Matlab to fit the Hill Equation for sigmoid curves to the data, to determine the corresponding EC50 value."}, "hiPS-CM organoids [4]": {"system": "hiPS-CM organoids", "experiment": "Force measurements (twitch tension, organ bath)", "conditions": "intensity-trained organoids versus other organoids and FCTs"}, "TS organoids [5]": {"system": "TS organoids", "experiment": "Timothy Syndrome disease model, force generation in response to extracellular calcium", "conditions": "Ca2+ overload with decreased force"}},
  "note": "Entries after “also recorded” stand apart in the source; their conditions may differ.",
  "data": [
    {"compound": "Cn1c(=O)c2c(ncn2C)n(C)c1=O", "note": "[caffeine]", "values": [
      {"measurement": "release of Ca2+ by caffeine after nifedipine", "setting": "TS organoids [1]", "result": "released Ca2+ back into the cytosol"}
    ]},
    {"compound": "COc1cc(N)c(Cl)cc1C(=O)NC1CCN(CCCOc2ccc(F)cc2)CC1OC", "note": "(stereo not drawn) [cisapride]", "values": [
      {"measurement": "incidence of EADs", "setting": "TS organoids [1]", "result": "increased incidence of EADs"},
      {"measurement": "proarrhythmic Early After Depolarizations", "setting": "hiPS-CM organoids [2]; female cardiac organoids, 1 μM", "result": "increased proarrythmic Early After Depolarizations"},
      {"measurement": "intracellular calcium transients, early after-depolarizations (EADs)", "setting": "hiPS-CM organoids [2]; intensity-trained organoids, increasing concentrations", "result": "prolonged"},
      {"measurement": "proarrhythmic tendencies", "setting": "hiPS-CM organoids [2]; other (not intensity-trained) organoids and FCTs", "result": "did not recapitulate proarrythmic tendencies"},
      {"measurement": "beat frequency (BPM)", "setting": "hiPS-CM organoids [3]", "result": "opposite effect"}
    ]},
    {"compound": "CNC[C@H](O)c1ccc(O)c(O)c1", "note": "[epinephrine]", "values": [
      {"measurement": "incidence of EADs", "setting": "TS organoids [1]", "result": "increased incidence of EADs"}
    ]},
    {"compound": "CC(C)NCC(O)c1ccc(O)c(O)c1", "note": "(stereo not drawn) [isoproterenol]", "values": [
      {"measurement": "calcium transients, QT intervals, EADs under β-adrenergic stimulation", "setting": "TS organoids [1]", "result": "increased calcium transients, prolonged QT intervals, and led to proarrhythmic EADs"},
      {"measurement": "twitch tension", "setting": "hiPS-CM organoids [4]", "result": "responded by increasing twitch tension"},
      {"measurement": "twitch tension", "setting": "hiPS-CM organoids [4]; listed as Isoprenaline", "result": "significantly increased their twitch tension"},
      {"measurement": "beat frequency (BPM)", "setting": "hiPS-CM organoids [3]", "result": "increases with increasing concentrations"},
      {"measurement": "ionotropic, lusitropic and chronotropic responses", "setting": "hiPS-CM organoids [3]; intensity-trained organoids", "result": "positive ionotropic (FIG. 23A), lusitropic (FIG. 23B), and chronotropic (FIG. 23C) responses; also recorded: dose-dependent effect on three functional properties"}
    ]},
    {"compound": "O=C1c2c(O)ccc(O)c2C(=O)c2c(NCCNCCO)ccc(NCCNCCO)c21", "note": "[mitoxantrone]", "values": [
      {"measurement": "beat frequency (BPM)", "setting": "hiPS-CM organoids [3]", "result": "opposite effect"}
    ]},
    {"compound": "CC(C)NCC(O)COc1cccc2ccccc12", "note": "(stereo not drawn) [propranolol]", "values": [
      {"measurement": "force generation in response to extracellular calcium", "setting": "TS organoids [5]", "result": "reversed some of these effects"}
    ]},
    {"compound": "C/C=C(/C)C(=O)O[C@H]1C(C)=C2[C@H]([C@@H]1OC(=O)CCCCCCC)[C@@](C)(OC(C)=O)C[C@H](OC(=O)CCC)[C@@]1(O)[C@H]2OC(=O)[C@@]1(C)O", "note": "[thapsigargin]", "values": [
      {"measurement": "calcium transients after drug", "setting": "hiPS-CM organoids [2]", "result": "calcium transients ceased quickly in intensity-trained organoids"}
    ]},
    {"compound": "COc1ccc(CCN(C)CCCC(C#N)(c2ccc(OC)c(OC)c2)C(C)C)cc1OC", "note": "(stereo not drawn) [verapamil]", "values": [
      {"measurement": "rescue of the TS phenotype", "setting": "TS organoids [1]; therapeutic concentrations", "result": "rescued the phenotype"},
      {"measurement": "calcium transients after drug", "setting": "hiPS-CM organoids [2]", "result": "cessation of calcium transients in all tissues; also recorded: cessation of Ca2+ transients"}
    ]},
    {"compound": "ryanodine", "values": [
      {"measurement": "response to ryanodine", "setting": "hiPS-CM organoids [2]; 1 μmol/L, early-stage versus late-stage intensity trained organoids", "result": "intensity trained early-stage but not late-stage organoids respond"}
    ]}
  ]
}
